From paper PMC7235871, “Excretion of the Polymyxin Derivative NAB739 in Murine Urine” (Antibiotics, 2020)
Positions of bridges follow the written chain, without caps; N, C: chain ends. Non-standard residues stand in square brackets, D forms with d. Residues, ends and D or L forms follow the SMILES beside them. *: point of attachment. Octanoyl = CCCCCCCC(=O)*; Dab = NCC[C@H](N)C(=O)O

Tests used:
[1] = Urinary elimination in NMRI mice after SC administration (pooled 0–3 h urine); type: in vivo
Procedure: (§1) NMRI female mice (10–12 weeks old, 29–32 g, n = 64) were obtained from ENVIGO (The Netherlands) and housed prior to treatment under standard conditions (acclimatization period of 1 week, 21–23 °C, 12-h light/dark cycle, relative humidity 45%–65%) with unlimited access to food (R70 diet from Lantmännen) and water. The experimental procedures were performed in accordance with the guidelines of the European Community and local laws and policies (Directive 2010/63/EU), and all of the procedures were approved by Food and Veterinary Service, Riga, Latvia. Studies involving animals are reported in accordance with the ARRIVE guidelines. Animals were weighed on the day of the treatment (before treatment) to calculate the required amount of compound for the corresponding dose. For PK and excretion studies the mice were dosed subcutaneously (SC) via a bolus injection (injection volume 10 mL/kg). Four consecutive doses were administrated twice a day at 9:00 AM and 15:00 PM over the course of two days.
For PK study, before the administration of the compound, mice voiding was stimulated. Then compound was administrated SC. Mice were put in separate cages with LabSand (USA) and urine was collected during the next 3 h. At the end of each 1-h period voiding was stimulated by gentle massage of the belly. Urine samples from each mouse were pooled in one tube. Urine volume was determined by weighing of the pooled urine sample.
(§2) Plasma and urine sample analyses were performed using the quantitative UPLC/MS/MS method. Calibration standards and quality control samples for plasma analysis were prepared by spiking blank mouse plasma (CD-1, anticoagulant Na Heparin, Innovative Research, USA) with a stock solution of analyte to achieve a nominal concentration ranging from 0.01 to 50 μg/mL for NAB739 and PMB. Calibration standards and quality control samples for urine analysis were prepared by spiking blank mouse urine (mouse CD-1 urine, Sera Laboratories International Ltd., UK) with a stock solution of analytes to achieve a nominal concentration from 0.04 to 30 μg/mL for NAB739 and PMB.
(§3) A sample volume of 20 μL (calibration standards, quality controls or analytical samples in plasma or urine) was transferred into the plastic tube and mixed with 100 μL of 1% formic acid solution in acetonitrile/methanol (3:1, v/v) mixture to precipitate proteins. The tubes were vortex- mixed and centrifuged at 10,000 rpm for 10 min. Then, 100 μL of supernatant was diluted with 400 μL of water and subjected to UPLC/MS analysis as follows:
(§4) UPLC system Acquity H-class (Waters) connected with triple quadrupole mass spectrometer Xevo TQ-S (Waters). UPLC conditions: Column—Acquity BEH C18 (2.1 × 50 mm, 1.7 µm); Mobile phase—A: 0.1% Formic acid aqueous solution, B: Acetonitrile; Gradient: Initial—90%A, 2.5 min—5% A, 4.0 min—5% A, 4.5 min—90% A, 6 min—90% A; Flow—0.3 mL/min; Column temperature—40 °C; Injection volume—1 μL (NAB739) or 5 μL (PMB). MS conditions: Ionization—ESI positive mode; Capillary voltage—1.0 kV; ESI source temperature—120 °C; Desolvation gas (N2) flow—800 L/h; Desolvation temperature—600 °C.

[2] = cynomolgus monkey, in vivo; cited from earlier work
E. coli = conditions: murine E. coli pyelonephritis, cited from earlier work; for Half maximal effective dose (ED50) in kidneys: bacterial burden in kidneys
[3] = cynomolgus monkey, in vivo; cited from earlier work; remark: listed apart in the source
[4] = Plasma concentrations (PK) in NMRI mice after SC administration; type: in vivo
Procedure: as §1
Blood samples were collected in tubes containing heparin. Blood was sampled from tail vein 15, 30, and 45 min after the first and last administrations of the compounds. Tubes were centrifuged at +4 °C 10,000× g for 3 min. Plasma samples were collected and stored at −20 °C until analysis.
as §2, §3, §4

[5] = design: method as in PMID 18840079; conditions: patients; cited from earlier work
[6] = Observation of adverse effects during administration in mice; type: in vivo, NMRI mice; conditions: SC, doses 0.25, 0.5, 1, 2 and 4 mg/kg, single and four-times-repeated
Procedure: as §1

| Molecule | Urinary concentration ([1]; female, NMRI, mouse, in vivo, sc, 4 mg/kg) | Relative elimination by urine higher after the last dose than after the first dose, average ([1]; mouse, in vivo) [%] | Urine concentration higher after the last dose compared to the first dose, average ([1]; mouse, in vivo) [%] | Detection in urine samples ([1]; mouse, in vivo, sc, 4 mg/kg) | Excretion in urine [2] | Half maximal effective dose (ED50) in kidneys (E. coli) [mg/kg] | Fold lower dose than PMB reducing bacterial burden in kidney, urine and bladder (E. coli) | Nephrotoxicity compared to PMB [3] | Plasma concentration ([4]; female, NMRI, mouse, in vivo, sc, 0.5 mg/kg) | Linearity of Cmax and dose–response relationship, correlation coefficient ([4]; mouse, in vivo, sc) | Part of dose excreted in urine [5] | Detection in urine samples ([1]; SC dose of 4 mg/kg, pooled 0–3 h urine) | Detection in urine ([1]; after the fourth SC dose at 4 mg/kg, detection limit 0.6 µg/mL) | Plasma concentrations after the first versus the last administration ([4]; SC, four doses) | Time at which Cmax was observed after administration ([4]; plasma, SC, all doses 0.25–4 mg/kg) [min] | Linearity of Cmax and dose–response relationship, correlation coefficient ([4]; plasma, first SC administration, doses 0.25–4 mg/kg) | Adverse effects during administration [6] |
| --- | --- | --- | --- | --- | --- | --- | --- | --- | --- | --- | --- | --- | --- | --- | --- | --- | --- |
| CCCCCCCC(=O)N[C@H](C(=O)N[C@H](CO)C(=O)N[C@H]1CCNC(=O)[C@H]([C@@H](C)O)NC(=O)[C@H](CCN)NC(=O)[C@H](CCN)NC(=O)[C@H](CC(C)C)NC(=O)[C@@H](Cc2ccccc2)NC(=O)[C@H](CCN)NC1=O)[C@@H](C)O [NAB739] (Octanoyl-T[dS][Dab][Dab][dF]L[Dab][Dab]T; lactam 3-C; N-terminus assumed) | above 35 µg/mL | 26 | 27 | found in all pooled (0–3 h) urine samples | excreted in the cynomolgus urine at a very significant extent | 0.24 | approximately 10 fold | less nephrotoxic | exceeded 1 µg/mL | 0.9987 | – | – | – | – | – | – | – |
| polymyxin B [PMB, reference compound] | – | – | – | – | – | 2.1 | – | – | – | – | less than 1% | not detected | not found | similar | 30 | 0.975 | no adverse effects were observed |
